Results on 5 molecules are retold here after patent US20110143993A1, “ENDOTHELIAL BASEMENT MEMBRANE TARGETING PEPTIDE LIGANDS” (The Brigham and Women's Hospital, Inc., priority 2009, published 2011).

A word on the IC50: it is the midpoint of a concentration-inhibition curve.

A short description of data set [1]: Pharmacokinetic studies with 14C-paclitaxel or 3H-PLGA. Also noted: species or system Sprague Dawley rats. The following applies: male, Sprague Dawley, rat, in vivo. As for the experimental part:
12 male Sprague Dawley rats weighing approximately 250 g with bilateral jugular catheters were obtained from Charles River Laboratories (Wilmington, Mass.). […] 200-500 μL of blood was collected via the right catheter at 1, 3, 6, 9 and 24 h after injection (n=6). In a separate study to assess targeted lipid-polymeric nanoparticle polymer levels in circulation, 400 μl, of NPs synthesized with ^3H-PLGA was injected in saline (100 μCi/mL) and 100 μL of blood was collected at 1, 3, 6, 9, 24, 48, 96 and 120 h after injection (n=6). Blood radioactivity was quantified as disintegrations per minute (DPM) using the PerkinElmer Tri-Carb 2810TR liquid scintillation analyzer.
Blood and tissue samples were processed as described by Chan J M, et al. Methods Mol. Biol. 2010; 624:163-175, with modifications. Solvable tissue solubilizer and Hionic-Fluor scintillation cocktail were purchased from PerkinElmer (Waltham, Mass.). All samples were weighed before processing. To prepare blood samples for radioisotope counting, 1.5 mL of tissue solubilizer was added to ≦0.5 mL blood and incubated at 55-60° C. for 2 h to dissolve the blood samples. Next, 50 μL of 0.5 mol/L EDTA-di-sodium salt solution was added to reduce foaming and 0.5 mL of hydrogen peroxide (300 g/L) was added dropwise with gentle agitation. Samples were further incubated at 55-60° C. for 1 h. To prepare tissue samples for radioisotope counting, kidney, spleen, liver, heart, and lung tissues (≦150 mg) were similarly processed, except with 4.0 mL of tissue solubilizer instead. Finally, 16 mL of Hionic-Fluor scintillation cocktail was added to both blood and tissue samples, and samples were subjected to temperature and light-adaptation for 1 h before counting. Sample radioactivity was read as disintegrations per minute (DPM) of either ^14C or ^3H radioisotopes using the PerkinElmer Tri-Carb 2810TR liquid scintillation analyzer, and standardized as DPM per gram of tissue or blood (DPM/g) based on the weight of the sample. […]

Another data set relates to Swiss albino mice. Put plainly: in vivo. As for the experimental part: (§1) Clinical monitoring over seven days was carried out for any signs of adverse effects.
(§2) At the end of the study, animals were sacrificed by CO2 inhalation. Gross necropsy was performed and H&E sections of the major organs (liver, lung, heart, spleen, kidney, nerves) were examined for any signs of toxicity.

The next data set is described as follows: in vivo. The following applies: male, Swiss albino, mouse, in vivo, iv. As to the method:
as §1, §2

Data set [2] relates to Matrigel. As to the kind of experiment: Phage clone binding to Matrigel (anti-M13 ELISA, ABTS absorbance). Conditions: ABTS absorbance 405 nm vs 490 nm, 10^10 p.f.u. per clone. As for the experimental part: 96-well plates were coated with 100 μL 1/50 dilutions of Matrigel in TBS overnight at 4° C., or TBS buffer only. Plates were blocked with 3% BSA/TBS for 2 h at RT and washed three times. 10^10 p.f.u. of each phage clone was added in 0.5% TBST in triplicate to either Matrigel or BSA-coated wells. Bound phage particles were detected with peroxidase-conjugated mouse anti-M13 monoclonal antibodies at 1/5000 dilution (Amersham Pharmacia Biotech, Piscataway, N.J.). After a 1 h incubation, the reaction was developed with 2,2′-azino-bis(3-ethylbenzthiazoline-6-sulphonic acid) (ABTS) (Amersham) and the absorbance was read at 405 nm against a reference wavelength of 490 nm with a SpectraMax Plus 384 Microplate reader (Molecular Devices, Sunnyvale, Calif.).
Background: An ELISA detects its analyte on a solid surface through an enzyme-linked reagent.

Data set [3] addresses Matrigel. As to the kind of experiment: Sequence-specific competition binding of phage clones against synthetic peptide equivalents. Conditions: synthetic peptide vs cognate phage on Matrigel, n=3. As to the method: Matrigel-coated and blocked 96-well plates were incubated in triplicate with 10^−5-10^−10 M peptide concentrations and 10^9 pfu of phage in 100 μL 0.5% TEST. After 1 h at RT, bound phages were labeled with anti-M13 mAb and color was developed and detected using ABTS absorbance (405-490 nm). Peptide inhibition curves were normalized on a percentage scale to provide an estimate of the IC50, which was calculated using a dose-response curve fit using the Origin 8 data analysis software (Northampton, Mass.) by the formula:
Y=Bottom+(Top−Bottom)/(1+10̂((Log IC50−X)*HillSlope)).

Data set [4] has as its system Matrigel. Put plainly: Phage titer count analysis on Matrigel. The format is binding. The following applies: phage input 10^12/mL p.f.u., n=3. The text has this:
(§3) In a sequence-specific competition assay, the context-dependence of the phage towards the peptide-collagen IV binding interaction was investigated. […] The binding of phage C-11 was investigated in three independent titer count analyses. Phage titers of C-11 were compared against the library (R0) for binding to Matrigel and collagen IV with an initial phage input of 10^12/mL plaque forming units (p.f.u.).

The subject of another data set is collagen IV. Put plainly: Phage titer count analysis on collagen IV. Format: binding, human. The following applies: phage input 10^12/mL p.f.u., n=3.
Text: as §3

Setting [5] is: 168 h after single i.v. dose, paclitaxel 10 mg/kg, targeted nanoparticles 35 mg/kg, mean ± SD n=6.

For the molecule `CC(=O)O[C@H]1C(=O)[C@@]2(C)[C@H]([C@H](OC(=O)c3ccccc3)[C@]3(O)C[C@H](OC(=O)[C@H](O)[C@@H](NC(=O)c4ccccc4)c4ccccc4)C(C)=C1C3(C)C)[C@]1(OC(C)=O)CO[C@@H]1C[C@@H]2O` [paclitaxel], in data set [1], the “time after which levels in circulation could not be further detected” value was 24 h. Further, in data set [1] (iv), the “t1/2α (h), half-life of distribution phase” value is reported as 0.64 h and the “t1/2β (h), half-life of elimination phase” value is given as 8.02 h. Further, the “hematological finding at day 7” value in the data set with Swiss albino mice (10 mg/kg, platelet count<400×10^9/L in two mice) is “signs of mild thrombocytopenia”. Moreover, in the data set with Swiss albino mice (15 mg/kg dose, 1.2 mg/mL, mice i.v.), the lethality result is listed as “immediate death of two mice”. Besides, in the data set on Swiss albino mice (setting [5]), the “ALP, alkaline phosphatase” value worked out at 41.7 ± 1.77 U/L; the “Baso, basophils” value is given as 0.140 ± 0.078%; the “Eo, eosinophils” value stood at 0.0023 ± 0.004%; the “HGB, hemoglobin” value is on record as 8.81 ± 0.49 mmol/L. In the data set with Swiss albino mice (setting [5]), the “LYMPH, lymphocytes” value worked out at 0.69 ± 0.13%; the “MCH, mean cell hemoglobin” value stood at 17.1 ± 0.679 pg; the MCHC is recorded as 17.9 ± 0.47 mmol/L; the “MCV, mean cell volume” value stood at 59.5 ± 1.55 fL. In the data set with Swiss albino mice (setting [5]), the “Mono, monocytes” value was determined as 0.167 ± 0.064%; the “NEUT, neutrophils” value turned out to be 0.002 ± 0.002%; the “PLT, platelets” value is reported as 1026 ± 533 ×10^9/L; the “RBC, red blood cells” value is listed as 8.30 ± 0.598 ×10^12/L. The “WBC, white blood cells” value in the data set on Swiss albino mice (setting [5]) is on record as 2.05 ± 0.454 ×10^9/L. Further, in the data set with Swiss albino mice (mouse, in vivo), the “ALT, alanine aminotransferase” value is reported as 61.01 ± 6.10 U/L and the “AST, aspartate aminotransferase” value worked out at 119.83 ± 8.23 U/L. Also, the MTD in “in vivo” came out at 10 mg/kg.

Regarding “KIFVWPY [Clone A-9, heptapeptide from phage display against collagen IV; phage clone and synthetic peptide equivalent]”, in the data set with Matrigel [2], the “binding to Matrigel compared with the random library (R0)” value is reported as “best candidates”. Further, the IC50 on Matrigel [3] turned out to be 551 nM.

Consider “KIWKLPQ [Clone C-10, heptapeptide from phage display against collagen IV; phage clone and synthetic peptide equivalent]”, for which the “binding to Matrigel compared with the random library (R0)” value in the data set on Matrigel [2] is listed as “best candidates”. Further, the IC50 on Matrigel [3] came to 917 nM.

Turning to “KLWVLPK [Clone C-11, heptapeptide from phage display against collagen IV; phage clone and synthetic peptide equivalent]”, the “binding to Matrigel compared with the random library (R0)” value with Matrigel [2] is on record as “best candidates”. Moreover, the IC50 at Matrigel [3] was 117 nM. Also, the “Matrigel binding compared to the library (phage titer)” value in the data set with Matrigel [4] is “approximately 300 fold”. For the same molecule, the “collagen IV binding compared to the library (phage titer)” value in the data set with collagen IV is “approximately 900 fold”.

On to “KVWSLPQ [Clone A-8, heptapeptide from phage display against collagen IV; phage clone and synthetic peptide equivalent]”, for which the “binding to Matrigel compared with the random library (R0)” value with Matrigel [2] was “best candidates”. In addition, at Matrigel [3], the IC50 amounted to 1200 nM.
